Measured values taken from PMC6270026, “Antibacterial and Herbicidal Activity of Ring-Substituted 2-Hydroxynaphthalene-1-carboxanilides” (Molecules, 2013).

How the values were obtained:
[1] = system: human monocytic leukemia THP-1 cells; experiment: In vitro cytotoxicity assay (LDH); assay type: cell-based; details: treatment with 20 µmol/L, 24 h
Protocol: Human monocytic leukemia THP-1 cells were obtained from the European Collection of Cell Cultures (ECACC, Salisbury, UK; Methods of characterization: DNA Fingerprinting (Multilocus probes) and isoenzyme analysis). These cells were routinely cultured in RPMI 1640 (Lonza, Verviers, Belgium) medium supplemented with 10% fetal bovine serum (FBS, Sigma-Aldrich), 2% L-glutamine, 1% penicillin and streptomycin (Lonza, Verviers, Belgium) at 37 °C with 5% CO2. Cells were passaged at approximately 1 week intervals. Cells were routinely tested for the absence of mycoplasma (Hoechst 33258 staining method). The tested compounds were dissolved in DMSO (Sigma-Aldrich) and added in five increasing concentrations to the cell suspension in the culture medium. The maximum concentration of DMSO in the assays never exceeded 0.1%. Subsequently, the cells were incubated for 24 h at 37 °C with 5% CO2 to various compound concentrations ranging from 0.37 to 20 μmol/L in RPMI 1640 medium. Cell toxicity was determined using a Cytotoxicity Detection Kit^PLUS Lactate dehydrogenase (LDH) assay kit (Roche Diagnostics, Mannheim, Germany) according to the manufacturer’s instructions, as described previously. […] All data were evaluated using GraphPad Prism 5.00 software (GraphPad Software, San Diego, CA, USA).

[2] = Lipophilicity determination by RP-HPLC (capacity factor log k); assay type: physicochemical; details: isocratic, MeOH 60%/H2O 40%, C18
Protocol: A HPLC system Agilent 1200 equipped with DAD detector (Agilent, Santa Clara, CA, USA) was used. A chromatographic column Symmetry® C18 5 μm, 4.6 × 250 mm, Part No. WAT054275, (Waters Corp., Milford, MA, USA) was used. The HPLC separation process was monitored and evaluated by EZChrom Elite software ver. 3.3.2 (Agilent). Isocratic elution by a mixture of MeOH p.a. (60%) and H2O-HPLC Mili-Q grade (40%) as a mobile phase was used. The total flow of the column was 1.0 mL/min, injection 20 μL, column temperature 40 °C and sample temperature 10 °C. The detection wavelength 210 nm was chosen. The KI methanolic solution was used for the dead time (tD) determination. Retention times (tR) were measured in minutes. The capacity factors k were calculated according to formula k = (tR − tD)/tD, where tR is the retention time of the solute, whereas tD denotes the dead time obtained using an unretained analyte. Log k, calculated from the capacity factor k, is used as the lipophilicity index converted to log P scale.

| SMILES | lethal effect on THP-1 cells [1] | log k [2] |
| --- | --- | --- |
| O=C(Nc1ccccc1Cl)c1c(O)ccc2ccccc12 [Compound 5a, N-(2-chlorophenyl)-2-hydroxynaphthalene-1-carboxamide] | did not lead to significant lethal effects | 0.8984 |
| O=C(Nc1ccccc1C(F)(F)F)c1c(O)ccc2ccccc12 [Compound 7a, 2-Hydroxy-N-(2-trifluoromethylphenyl)naphthalene-1-carboxamide] | did not lead to significant lethal effects | 0.8353 |
| O=C(Nc1cccc(C(F)(F)F)c1)c1c(O)ccc2ccccc12 [Compound 7b, 2-Hydroxy-N-(3-trifluoromethylphenyl)naphthalene-1-carboxamide] | did not lead to significant lethal effects | 0.9411 |
